The values below come from patent publication US9127021B2, “Hepatitis C virus inhibitors” (priority 2010, dated 2015).

In one experiment the test system is HCV 1a genotype replicon. As to the kind of experiment: HCV genotype 1a replicon assay (qRT-PCR or luciferase). It is filed as cell-based. The following applies: Hepatitis C virus. (In general: In antiviral work, replicon cells carry a viral genome segment that copies itself.)
The next experiment relates to HCV 1b genotype replicon. As to the kind of experiment: HCV genotype 1b replicon assay (qRT-PCR or luciferase). The following applies: Hepatitis C virus. It is filed as cell-based. The text has this:
HCV replicon cell lines (kindly provided by R. Bartenschlager) isolated from colonies as described by Lohman et al. (Lohman et al. (1999) Science 285: 110-113, expressly incorporated by reference in its entirety) and used for all experiments. The HCV replicon has the nucleic acid sequence set forth in EMBL Accession No.: AJ242651, the coding sequence of which is from nucleotides 1801 to 8406.
The coding sequence of the published HCV replicon was synthesized and subsequently assembled in a modified plasmid pBR322 (Promega, Madison, Wis.) using standard molecular biology techniques. […]
EC50 values of single agent compounds were determined by HCV RNA detection using quantitative RT-PCR, according to the manufacturer's instructions, with a TAQMAN® One-Step RT-PCR Master Mix Reagents Kit (Cat#AB 4309169, Applied Biosystems) on an ABI Model 7500 thermocycler. EC50 values of combinations are similarly determined by HCV RNA detection using quantitative RT-PCR. The TAQMAN primers to use for detecting and quantifying HCV RNA obtained from Integrated DNA Technologies. HCV RNA is normalized to GAPDH RNA levels in drug-treated cells, which is detected and quantified using the Human GAPDH Endogenous Control Mix (Applied Biosystems, AB 4310884E). […] Chemical agent cytotoxicity is evaluated using an MTS assay according to the manufacturer's directions (Promega). […]

SMILES strings stand for the structures. pEC50: −log10 of the molar value. Where two headings read alike, the source gives them in different places.

On to `COC(=O)N[C@H](C(=O)N1CCC[C@H]1c1nc(-c2ccc(-c3ccc4c(c3)COCCCCO[C@H](C)[C@H](NC(=O)OC)C(=O)N3CCC[C@H]3c3nc-4c[nH]3)cc2)c[nH]1)C(C)C` [Compound 346], for which the pEC50 in the experiment with HCV 1a genotype replicon (read-out: 1a EC50) was 8.62; in the experiment with HCV 1a genotype replicon (read-out: Range (EC50 range against HCV 1a)) it was under 9.00.
For `COC(=O)N[C@H]1CCCCOCc2cc(-c3ccc4cc(-c5c[nH]c([C@@H]6CCCN6C(=O)[C@@H](NC(=O)OC)C(C)C)n5)ccc4c3)ccc2NC(=O)[C@@H]2CCCN2C1=O` [Compound 350], the values for the pEC50 with HCV 1b genotype replicon (read-out: 1b EC50) and in the experiment with HCV 1b genotype replicon (read-out: Range (EC50 range against HCV 1b)) were 10.30 and over 10.00, respectively.

One may read the pEC50 as the EC50 on a negative log10 scale, so that one unit is a factor of ten.
